Legend:
[1] = target: T1, HIPK2 (Homo sapiens, UniProt Q9H2X6); experiment: Drug affinity responsive target stability (DARTS) with pronase in 293T lysates; format: binding; set-up: endogenous in cells; host or cells: HEK 293T cell lysate; settings: 1:10,000 pronase/cell lysate ratio
Method: Drug affinity responsive target stability (DARTS) method was used to identify protein targets of test compound as described previously by Pai et al. [Methods Mol Biol, 1263: 287-298, 2015]. Briefly, 293T lysates were incubated with test compound at room temperature for 1 hour. After incubation, cell lysates were subjected to proteolysis with various concentrations of pronase (#10165921001, Roche) at room temperature for 20 minutes. Proteolysis was stopped by addition of 5× protein loading buffer and heating at 90° C. for 5 minutes. Protein samples were subjected to western blot analysis.
Drug affinity responsive target stability (DARTS) has recently been developed to identify potential protein targets of small molecules. It is based on the principle that the binding of small molecule compound to the target protein changes the protein structure such that it can increase its stability and confer protection against proteolysis. In order to test whether compounds of the invention bind directly to HIPK2, we performed the DARTS experiments using pronase in presence of Example 1. […] Because HIPK2 abundance is quite low in many known cell types, we overexpressed His6-tagged HIPK2 in 293T cells for testing its interaction with the endogenous Smad3. The expression of His6-HIPK2 and Smad3 in 293T cells was confirmed by western blot. We pulled down His6-HIPK2 using cobalt beads and checked for the presence of Smad3 in cells treated with two different doses of Example 1.

[2] = test system: Tg26 mice; experiment: Tg26 (HIV-1 transgenic) mouse model of kidney disease; format: in vivo
Method: Tg26 mice of FVB/N genetic background bearing a defective HIV-1 provirus lacking gag-pol have been described by Feng et al. [J Am Soc Nephrol 2009; 20: 2138-2146]. Six-week old heterozygous Tg26 mice were used in this study. Wildtype littermates were used as controls. Mice in the treatment group received test compound dissolved in DMSO and diluted in saline (5% DMSO) by oral gavage at a dose of 200 μg/kg body weight per day. Mice in the control group received the same volume of 5% DMSO/saline vehicle. The mice were treated for a total of 4 weeks and sacrificed at age of 10 weeks. The UUO model was established in male C57BL/6 mice (The Jackson Laboratory) by ligation of the left ureter as described by Jin et al. [Lab Invest, 93: 801-811, 2013]. After the operation, UUO mice were randomly divided into control group (vehicle) and treatment group. Mice were fed with test compound by oral gavage at a dose of 200 μg/kg body weight per day for 7 days.
Immunofluorescence staining was conducted on paraffin-embedded kidney sections using standard procedures. Briefly, deparaffinized sections were incubated with primary antibody against collagen I (1:50, #NB6-00-4-8, Novus) at 4° C. overnight. After being washed, sections were incubated with Alexa Fluor488-labelled second antibody (1:200, #A11034, Invitrogen) at room temperature for 1 hour in darkness. After nuclei were stained with 4′, 6-diamidino-2-phenyllindole (DAPI) slides were mounted using Aqua PolyMount (Polysciences, Inc) and images were acquired using AxioVision IIe microscope with a digital camera.
Renal fibrosis was evaluated histologically by Sirius red staining on paraffin slides of mice kidney tissues according to the manufacturer's instructions (#ab150681, Abcam). Masson's trichrome staining on paraffin slices of mice kidney tissue was performed according to manufacturer's instructions (#87019, Thermo Scientific).
Tg26 mice are known to develop proteinuria starting from 4 weeks of age and the proteinuria peaks usually around 8-10 weeks of age. Tg26 mice also develop significant glomerulosclerosis and renal failure by 8-10 weeks of age. To determine whether compounds of the invention could reverse kidney injury that has been already developed, we started to treat Tg26 mice with either vehicle or Example 1 from age of 6 weeks for a total of 4 weeks, and the mice were sacrificed at age of 10 weeks.

[3] = test system: Smad3 phosphorylation; experiment: TGF-β1-induced Smad3 phosphorylation in hRTECs (western blot); format: cell-based, human; settings: pretreatment, TGF-β1 5 ng/ml for 20 minutes
Method: HEK 293T (293T) cells (ATCC) were cultured in Dulbecco's Modified Eagle's medium (Invitrogen) containing 10% fetal bovine serum (FBS), 0.5% penicillin and streptomycin at 37° C. and 5% CO2 humidified environment. Human primary tubular cells (PromoCell GmbH, Heidelberg, Germany) were cultured in Renal Epithelial Cell Growth Medium-2 (Promocell GmbH) with supplements according to manufacturer's protocol human primary renal tubular epithelial cells with <5 passages were used for all studies. For HIV infection of hRTECs, pNL4-3:ΔG/P-EGFP, a gag/poi-deleted HIV-1 construct that contains EGFP in the gag open reading frame, and pHR-IRES-EGFP, a control EGFP construct, were used to generate the VSV-G pseudotyped virus. Cells were infected with HIV pseudotyped virus or control virus for 2 days before the treatment with test compound.
Cells were lysed in M-PER mammalian protein extraction reagent (#78501, Thermo Fisher Scientific, NY) containing protease inhibitor cocktail (#11836153001, Roche) and phosphatase inhibitors (50 mM NaF, 10 mM β-glycerophosphate, 5 mM sodium pyrophosphate, 2 mM Na3VO4). Total protein concentration was measured using the Bradford reagent (#500-0006, Bio-Rad). Proteins were separated on SDA-PAGE and transferred to nitrocellulose membrane. […]

[4] = target: T1, HIPK2; experiment: HIPK2 kinase assay (ProQinase GmbH); format: biochemical; set-up: purchased ProQinase GmbH (Freiburg, Germany), assay service; settings: increasing concentrations
Method: HIPK2 kinase assay was performed by ProQinase GmbH (Freiburg, Germany).
Kinase assay was performed by ProQinase GmbH (Freiburg, Germany).

[5] = Tg26 mice treated from age of 6 weeks for 4 weeks, vs vehicle
[6] = Tg26 mice, post-treatment (week 4), 200 μg/kg/day oral gavage
[7] = Tg26 mice, pre-treatment (week 0)
[8] = Wildtype mice, post-treatment (week 4), 200 μg/kg/day oral gavage
[9] = Wildtype mice, pre-treatment (week 0)

T1 sequence (Q9H2X6 whole entry): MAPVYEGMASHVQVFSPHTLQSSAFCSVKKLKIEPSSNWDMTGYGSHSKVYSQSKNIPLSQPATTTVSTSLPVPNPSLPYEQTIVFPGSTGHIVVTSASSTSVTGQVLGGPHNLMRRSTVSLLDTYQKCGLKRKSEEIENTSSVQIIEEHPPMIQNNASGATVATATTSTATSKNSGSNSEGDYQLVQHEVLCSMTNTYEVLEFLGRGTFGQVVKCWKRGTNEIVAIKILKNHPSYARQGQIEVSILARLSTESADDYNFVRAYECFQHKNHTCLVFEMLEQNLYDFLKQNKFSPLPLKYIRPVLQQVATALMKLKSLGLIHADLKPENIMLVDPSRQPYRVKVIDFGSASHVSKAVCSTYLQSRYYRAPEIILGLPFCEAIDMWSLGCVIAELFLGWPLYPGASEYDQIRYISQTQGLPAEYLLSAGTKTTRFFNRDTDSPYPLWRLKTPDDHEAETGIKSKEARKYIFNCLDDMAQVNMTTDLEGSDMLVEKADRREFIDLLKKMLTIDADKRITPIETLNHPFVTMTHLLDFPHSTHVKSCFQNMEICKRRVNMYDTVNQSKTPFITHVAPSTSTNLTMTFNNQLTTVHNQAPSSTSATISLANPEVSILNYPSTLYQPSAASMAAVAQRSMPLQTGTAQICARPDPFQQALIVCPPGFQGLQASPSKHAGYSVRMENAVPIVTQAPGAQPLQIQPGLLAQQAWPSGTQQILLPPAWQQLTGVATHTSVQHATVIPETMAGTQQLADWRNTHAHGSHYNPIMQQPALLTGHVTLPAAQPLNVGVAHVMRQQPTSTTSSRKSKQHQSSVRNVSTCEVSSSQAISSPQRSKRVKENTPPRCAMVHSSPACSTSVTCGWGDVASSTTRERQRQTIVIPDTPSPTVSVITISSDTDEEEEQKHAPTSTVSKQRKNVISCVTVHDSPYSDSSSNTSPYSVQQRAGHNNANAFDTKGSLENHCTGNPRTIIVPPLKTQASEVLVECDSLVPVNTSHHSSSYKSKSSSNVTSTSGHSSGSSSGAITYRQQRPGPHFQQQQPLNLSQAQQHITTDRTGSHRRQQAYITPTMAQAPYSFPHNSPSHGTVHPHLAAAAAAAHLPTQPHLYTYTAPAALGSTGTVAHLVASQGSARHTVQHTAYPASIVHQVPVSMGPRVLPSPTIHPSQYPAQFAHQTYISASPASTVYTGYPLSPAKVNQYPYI

SMILES: COc1ccc2cc(-c3nc(-c4ccc(Br)cc4)no3)cnc2c1 [Example 1, 3-(4-Bromophenyl)-5-(7-methoxyquinolin-3-yl)-1,2,4-oxadiazole]
- protection of HIPK2 from pronase digestion (DARTS) ([1]; 30 μm): partial protection
- protection of HIPK2 from pronase digestion (DARTS) ([1]; 100 μm): complete protection
- protection of HIPK2 from pronase degradation (DARTS) ([1]; versus DMSO control): protected from degradation
- Smad3 phosphorylation and α-SMA expression ([2]; Tg26 mice): significantly reduced
- kidney injury and renal fibrosis (picrosirius red, Masson's trichrome, Collagen I immunofluorescence) ([2]; Tg26 mice): attenuated kidney injury and renal fibrosis
- proteinuria [2, 5]: significantly reduced proteinuria
- renal function [2, 5]: improved renal function
- BUN [2, 6]: 22.404 ± 4.678 mg/dL
- Urinary Albumin:Creatinine Ratio [2, 6]: 19.917 ± 5.838 µg/µg
- BUN [2, 7]: 23.799 ± 1.990 mg/dL
- Urinary Albumin:Creatinine Ratio [2, 7]: 23.321 ± 12.339 µg/µg
- BUN [2, 8]: 18.875 ± 3.485 mg/dL
- Urinary Albumin:Creatinine Ratio [2, 8]: 0.036 ± 0.008 µg/µg
- BUN [2, 9]: 21.091 ± 3.009 mg/dL
- Urinary Albumin:Creatinine Ratio [2, 9]: 0.033 ± 0.007 µg/µg
- Smad3 phosphorylation induced by TGF-β1 [3]: gradually inhibited
- inhibition of HIPK2 kinase activity [4]: No inhibition

From patent publication US10669266B2, “Oxadiazole inhibitors of HIPK2 for treating kidney fibrosis” (ICAHN SCHOOL OF MEDICINE AT MOUNT SINAI, priority 2017, dated 2020)
